Experimental data reported in paper PMC4008786, “Molecular Characterization, Expression Pattern, and Ligand-Binding Property of Three Odorant Binding Protein Genes from Dendrolimus tabulaeformis” (Journal of Chemical Ecology, 2014).
Read-outs that look alike come from different tables or passages of the source.

Key:
DtabGOBP1 [1] = molecular target: T1, DtabGOBP1 (Dendrolimus tabulaeformis, UniProt A0A059PCQ9); assay: Competitive fluorescence binding assay (displacement of 1-NPN), DtabGOBP1; conditions: for abnormal fluorescence binding curve (in words): 1-NPN fluorescence on addition of ligand
Description: (§1) Emission fluorescence spectra were performed on an F-4500 fluorescence Spectrophotometer (Hitachi, Japan) at 25 °C with a 1 cm light path quartz cuvette and 5 nm slits for both excitation and emission. The protein was dissolved in 50 mM Tris–HCl buffer, pH 7.4, while ligands used in the binding assay were added as 1 mM methanol solutions. The fluorescence of the mixture was recorded after 5 min to allow the signal to stabilize.
(§2) To measure the affinity of the fluorescent ligand 1-NPN to DtabPBP1, DtabGOBP1, and DtabGOBP2, a 2 μM solution of the protein in 50 mM Tris–HCl, pH 7.4, was titrated with aliquots of 1 mM 1-NPN dissolved in methanol to a final concentration of 16 μM. The probe was excited at 337 nm, and emission spectra were recorded between 380 and 450 nm. To evaluate the effect of pH on the binding affinity of the three OBPs, we also measured their binding with 1-NPN at a pH range of 4.5–9.0. The displacement of 1-NPN by selected ligands was measured in competitive binding assays using both the protein and 1-NPN at 2 μM. The mixtures were titrated with 1 mM methanol solutions of each competitor over concentration ranges of 2–16 μM. The fluorescence of the mixture was recorded after 5 min. Dissociation constants for 1-NPN and the stoichiometry of binding were obtained from Scatchard plots of the binding data through processing the data with Prism software. For other competitor ligands, the dissociation constants were calculated from the corresponding IC50 values using the equation: Ki = [IC50]/(1 + [1 − NPN]/K1 − NPN), where [1-NPN] is the free concentration of 1-NPN and K1-NPN is the dissociation constant of the protein complex/1-NPN.
(§3) To understand the ligand binding properties of the three OBPs, we prepared the recombinant proteins. Figure S5 reports the expression and purification of them. Then, we performed competitive ligand-binding experiments using well established protocols for other insect OBPs (Ban et al. [2002], [2003b]; Guo et al. [2012]; He et al. [2010]; Zhou et al. [2009]) to investigate the specificity of the binding pocket in the three D. tabulaeformis OBPs. The probe was excited at 337 nm, and emission spectra were recorded between 380 and 450 nm. […] The three proteins DtabPBP1, DtabGOBP1, and DtabGOBP2 bind 1-NPN with dissociation constants 12.5 ± 1.7, 14.4 ± 2.6, and 8.5 ± 0.6, respectively (Fig. 4a).

DtabGOBP2 [2] = molecular target: T2, DtabGOBP2 (Dendrolimus tabulaeformis, UniProt A0A059PCR0); assay: Competitive fluorescence binding assay (displacement of 1-NPN), DtabGOBP2
Description: as §1, §2, §3

DtabPBP1 [3] = molecular target: T3, DtabPBP1 (Dendrolimus tabulaeformis, UniProt A0A059PCM8); assay: Competitive fluorescence binding assay (displacement of 1-NPN), DtabPBP1
Description: as §1, §2, §3

DtabGOBP1 [4] = molecular target: T1, DtabGOBP1; assay: Fluorescence titration of protein with 1-NPN (Scatchard plot), DtabGOBP1; assay type: binding
Description: as §1
(§4) To measure the affinity of the fluorescent ligand 1-NPN to DtabPBP1, DtabGOBP1, and DtabGOBP2, a 2 μM solution of the protein in 50 mM Tris–HCl, pH 7.4, was titrated with aliquots of 1 mM 1-NPN dissolved in methanol to a final concentration of 16 μM. The probe was excited at 337 nm, and emission spectra were recorded between 380 and 450 nm. To evaluate the effect of pH on the binding affinity of the three OBPs, we also measured their binding with 1-NPN at a pH range of 4.5–9.0. The displacement of 1-NPN by selected ligands was measured in competitive binding assays using both the protein and 1-NPN at 2 μM. The mixtures were titrated with 1 mM methanol solutions of each competitor over concentration ranges of 2–16 μM. The fluorescence of the mixture was recorded after 5 min. […]
(§5) To understand the ligand binding properties of the three OBPs, we prepared the recombinant proteins. […] The probe was excited at 337 nm, and emission spectra were recorded between 380 and 450 nm. […]

DtabGOBP2 [5] = molecular target: T2, DtabGOBP2; assay: Fluorescence titration of protein with 1-NPN (Scatchard plot), DtabGOBP2; assay type: binding
Description: as §1, §4, §5

DtabPBP1 [6] = molecular target: T3, DtabPBP1; assay: Fluorescence titration of protein with 1-NPN (Scatchard plot), DtabPBP1; assay type: binding
Description: as §1, §4, §5

[7] = DtabGOBP1, 1-NPN fluorescence at ligand max conc 16, protein and 1-NPN at 2 μM, pH 7.4, read-out: %of max±SE
[8] = DtabGOBP2, 1-NPN fluorescence at ligand max conc 16, protein and 1-NPN at 2 μM, pH 7.4, read-out: %of max±SE
[9] = DtabPBP1, 1-NPN fluorescence at ligand max conc 16, protein and 1-NPN at 2 μM, pH 7.4, read-out: %of max±SE
[10] = DtabGOBP1, 1-NPN fluorescence at ligand max conc 16, protein and 1-NPN at 2 μM, pH 7.4
[11] = DtabPBP1, 1-NPN fluorescence at ligand max conc 16, protein and 1-NPN at 2 μM, pH 7.4
[12] = DtabGOBP2, 1-NPN fluorescence at ligand max conc 16, protein and 1-NPN at 2 μM, pH 7.4
[13] = 2 μM protein, 50 mM Tris–HCl pH 7.4, Scatchard plot, read-out: dissociation constant (Kd) of 1-NPN
[14] = pH 4.5–9.0, protein and 1-NPN at 2 μM

T3 sequence (A0A059PCM8 entry or part of it): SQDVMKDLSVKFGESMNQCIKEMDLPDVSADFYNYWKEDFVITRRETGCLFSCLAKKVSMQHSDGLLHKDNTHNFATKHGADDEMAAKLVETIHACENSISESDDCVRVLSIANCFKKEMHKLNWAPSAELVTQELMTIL
T2 sequence (A0A059PCR0 entry or part of it): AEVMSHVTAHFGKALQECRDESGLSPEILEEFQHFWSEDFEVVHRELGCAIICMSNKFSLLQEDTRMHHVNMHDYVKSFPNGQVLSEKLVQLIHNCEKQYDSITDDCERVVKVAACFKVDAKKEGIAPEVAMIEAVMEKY
T1 sequence (A0A059PCQ9 entry or part of it): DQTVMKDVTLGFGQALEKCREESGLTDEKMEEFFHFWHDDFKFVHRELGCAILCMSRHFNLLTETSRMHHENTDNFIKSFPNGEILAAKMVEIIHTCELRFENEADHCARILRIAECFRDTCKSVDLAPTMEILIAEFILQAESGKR

Compound | activity at 16 µM (DtabGOBP1 [1]; [7]) [%] | activity at 16 µM (DtabGOBP2 [2]; [8]) [%] | activity at 16 µM (DtabPBP1 [3]; [9]) [%] | %of max±SE (DtabGOBP1 [1]; [10]) | %of max±SE (DtabPBP1 [3]; [11]) | %of max±SE (DtabGOBP2 [2]; [12]) [%] | also measured
CC1=CCC(C(C)C)=CC1 [γ-Terpinene, γ-terpinene] |  |  |  |  |  |  | inhibition at 16 µM (DtabGOBP1 [1]; pH 7.4, read-out: 1-NPN displaced): 30%; activity at 16 µM (DtabGOBP1 [1]; pH 7.4, read-out: %of max±SE): 71.8 ± 0.7%; activity at 16 µM (DtabGOBP2 [2]; pH 7.4, read-out: %of max±SE): 99.3 ± 0.4%; activity at 16 µM (DtabPBP1 [3]; pH 7.4, read-out: %of max±SE): 88.1 ± 0.3%
C=CC(C)(O)CCC=C(C)C (stereo not shown) [Linalool, linalool] | 90.4 ± 0.9 | 95.2 ± 0.6 | 90.4 ± 0.7 |  |  |  | 
CCCCCC/C=C\CCCCO [Z5-12:OH, (Z)-5-dodecenyl alcohol] | 77.2 ± 0.3 | 67 ± 0.5 | 75.1 ± 0.2 |  |  |  | 
CCCCCC/C=C\CCCCOC(C)=O [Z5-12:OAc, (Z)-5-dodecenyl acetate] |  | 66.6 ± 0.7 |  | Abnormal | Abnormal |  | abnormal fluorescence binding curve (in words) (DtabGOBP1 [1]; DtabGOBP1): increase in fluorescence at high concentrations
C=CC(=C)CCC=C(C)C [β-Myrene, β-myrene] |  |  |  | 67.8±0.8% | 86.5±0.8% | 83.3±0.7 | 1-NPN displaced (DtabGOBP1 [1]; DtabGOBP1, at a max concentration of ligand): 30%
CC1=CCC(=C(C)C)CC1 [Terpinolene, terpinolene] | 100 ± 3.2 | 85.3 ± 1.8 | 90.3 ± 0.2 |  |  |  | 
CC1=CCC2CC1C2(C)C (stereo not drawn) [(-)-α-Pinene, (−)-α-pinene] |  |  |  | 96.4±0.3% | 85.4±0.4% | 90.8±0.4 | 
C=C1CCC2CC1C2(C)C (stereo not drawn) [(-)-β-Pinene, (−)-β-pinene] |  |  |  | 82.8±1.0% | 80.7±0.5% | 83.2±1.1 | 
CC1=CCC2C(C1)C2(C)C (single isomer, unassigned; (+)) [(+)-3-Carene, (+)-3-carene] |  |  |  | Abnormal | 85.3±1.7% | 84.3±0.9 | abnormal fluorescence binding curve (in words) (DtabGOBP1 [1]; DtabGOBP1): increased 1-NPN fluorescence
CCCC/C=C/C=C\CCCCOC(=O)CC [Z5,E7-12:OPr, (5Z,7E)-5,7-dodecadien-1-yl propionate] | 37.1 ± 0.5 | 44.8 ± 0.7 | 44.5 ± 0.6 |  |  |  | Ki (DtabGOBP1 [1]; DtabGOBP1): 1.9 µM; binding affinity / displacement of 1-NPN (in words) (DtabGOBP1 [1]; DtabGOBP1): high binding affinities; Kd (DtabGOBP1 [1]; DtabGOBP1, calculated from IC50 of 1-NPN displacement, read-out: KD±SE): 1.9 ± 0.2 µM; Ki (DtabGOBP2 [2]; DtabGOBP2): 2.7 µM; binding affinity / displacement of 1-NPN (in words) (DtabGOBP2 [2]; DtabGOBP2): high binding affinities; Kd (DtabGOBP2 [2]; DtabGOBP2, calculated from IC50 of 1-NPN displacement, read-out: KD±SE): 2.7 ± 0.3 µM; Ki (DtabPBP1 [3]; DtabPBP1): 3.61 µM; binding affinity / displacement of 1-NPN (in words) (DtabPBP1 [3]; DtabPBP1): high binding affinities; Kd (DtabPBP1 [3]; DtabPBP1, calculated from IC50 of 1-NPN displacement, read-out: KD±SE): 3.6 ± 0.3 µM
CCCC/C=C/C=C\CCCCO [Z5,E7-12:OH, (5Z,7E)-5,7-dodecadien-1-ol] | 81 ± 1 | 65.6 ± 0.8 | 74.5 ± 0.6 |  |  |  | 
C=C1C2CCC(C2)C1(C)C (stereo not shown) [Camphene, camphene] |  |  |  |  |  |  | activity at 16 µM (DtabGOBP1 [1]; pH 7.4, read-out: %of max±SE): 96.7 ± 1.2%; activity at 16 µM (DtabGOBP2 [2]; pH 7.4, read-out: %of max±SE): 93.8 ± 0.7%; activity at 16 µM (DtabPBP1 [3]; pH 7.4, read-out: %of max±SE): 96.5 ± 0.2%
CC/C=C\CCO [(Z)-3-Hexen-1-ol, (Z)-3-hexen-1-ol] |  |  |  |  |  |  | activity at 16 µM (DtabGOBP1 [1]; pH 7.4, read-out: %of max±SE): 96.5 ± 1.4%; activity at 16 µM (DtabGOBP2 [2]; pH 7.4, read-out: %of max±SE): 90.8 ± 0.6%; activity at 16 µM (DtabPBP1 [3]; pH 7.4, read-out: %of max±SE): 94.6 ± 0.2%
C=C(C)C1CC=C(C)CC1 (single isomer, unassigned; (+)) [(+)-Limonene, (+)-limonene] |  |  |  | 78.2±1.1% | 94.4±0.4% | 88.0±1.3 | 
(+)-α-pinene |  |  |  | 98.3±2.2% | 83.9±0.3% | 88.8±2.2 | 
c1ccc(Nc2cccc3ccccc23)cc1 [1-NPN] |  |  |  |  |  |  | Kd (DtabGOBP1 [4]; [13]): 14.4 ± 2.6 µM; effect of pH on affinity for 1-NPN (in words) (DtabGOBP1 [4]; [14]): rapid loss of affinity in acidic conditions; Kd (DtabGOBP2 [5]; [13]): 8.5 ± 0.6 µM; effect of pH on affinity for 1-NPN (in words) (DtabGOBP2 [5]; [14]): rapid loss of affinity in acidic conditions; Kd (DtabPBP1 [6]; [13]): 12.5 ± 1.7 µM; effect of pH on affinity for 1-NPN (in words) (DtabPBP1 [6]; [14]): rapid loss of affinity in acidic conditions
CCCC/C=C/C=C\CCCCOC(C)=O [Z5,E7-12:OAc, (5Z,7E)-5,7-dodecadien-1-yl acetate] | 67.9 ± 1.1 | 66.2 ± 0.3 | 74.7 ± 1 |  |  |  | 
CC1=CC=C(C(C)C)CC1 [α-Terpinene, α-terpinene] |  |  |  |  |  |  | activity at 16 µM (DtabGOBP1 [1]; pH 7.4, read-out: %of max±SE): 81.8 ± 1.3%; activity at 16 µM (DtabGOBP2 [2]; pH 7.4, read-out: %of max±SE): 93.2 ± 0.9%; activity at 16 µM (DtabPBP1 [3]; pH 7.4, read-out: %of max±SE): 86.7 ± 0.7%
(−)-limonene [(-)-Limonene] |  |  |  | 80.5±1.1% | 93.8±0.6% | 94.1±0.8 | 
